According to ChEMBL document CHEMBL1201862, “PubChem BioAssay data set” (2004):
The source made the active and inactive calls.

Tests used:
Bcl-2-like protein 10 = Bcl-2-like protein 10 (Homo sapiens, UniProt Q9HD36); assay: displacers of TR3 peptide from Bcl-B, primary screen, selectivity assay for Bfl-1 inhibitor project, biochemical, fluorescence polarization, FITC-TR3 peptide (AID 748);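 further: fluorescence polarization from a fluorescein-labelled TR3 peptide binding purified Bcl-B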
Estrogen receptor = target: T1, Estrogen receptor (Homo sapiens, UniProt P03372);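 further: potency for inhibiting coactivator peptide recruitment to the receptor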
T1 sequence (P03372 whole entry): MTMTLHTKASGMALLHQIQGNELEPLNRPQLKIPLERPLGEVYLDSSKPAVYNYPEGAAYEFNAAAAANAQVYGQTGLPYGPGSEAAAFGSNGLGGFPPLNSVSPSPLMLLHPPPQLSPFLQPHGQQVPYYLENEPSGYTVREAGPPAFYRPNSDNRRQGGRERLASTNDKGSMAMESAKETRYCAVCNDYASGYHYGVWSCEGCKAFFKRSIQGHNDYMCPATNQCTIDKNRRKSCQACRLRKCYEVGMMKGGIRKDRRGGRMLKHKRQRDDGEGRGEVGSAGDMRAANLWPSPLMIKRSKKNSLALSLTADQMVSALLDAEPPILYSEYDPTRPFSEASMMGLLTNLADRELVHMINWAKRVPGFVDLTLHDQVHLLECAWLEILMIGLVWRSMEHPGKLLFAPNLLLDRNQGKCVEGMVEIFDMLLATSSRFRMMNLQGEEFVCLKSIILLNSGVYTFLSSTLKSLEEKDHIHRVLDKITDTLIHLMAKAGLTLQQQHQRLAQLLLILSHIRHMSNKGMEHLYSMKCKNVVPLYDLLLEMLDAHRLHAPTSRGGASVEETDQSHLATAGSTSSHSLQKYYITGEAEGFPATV

Salmon testes DNA = assay: DNA intercalators displacing acridine orange, dose response, artefact control for KSHV LANA DNA-binding inhibitor project, biochemical, fluorescence polarization, cherry-picked samples, set 2 (AID 504727); set-up: species or system Salmonidae
[1] = target: Acyl-homoserine lactone acylase PvdQ (Pseudomonas aeruginosa (strain LESB58), UniProt Q9I194); assay: P. aeruginosa PvdQ acylase inhibitors, dose response, biochemical, fluorescence, plate reader and imaging, cherry-picks (AID 493231)
[2] = target: T2, Small ubiquitin-related modifier 1 (Homo sapiens, UniProt P63165); assay: inhibitors of SUMO1 partner interactions, dose response, biochemical, FRET (AID 624383); assay type: functional; settings: read-out: IC50_Mean
T2 sequence (P63165 whole entry): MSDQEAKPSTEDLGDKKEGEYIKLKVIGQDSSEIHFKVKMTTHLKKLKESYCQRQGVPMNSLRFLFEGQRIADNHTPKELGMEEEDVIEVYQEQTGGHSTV

Prothrombin = Prothrombin (Bos taurus, UniProt P00735); assay: thrombin inhibition, dose response, biochemical, fluorescence polarization, uHTS hits (AID 602369); assay type: functional
cells = settings: A549
[3] = target: T2, Small ubiquitin-related modifier 1; assay: inhibitors of SUMO1 peptide binding, dose response, biochemical, fluorescence polarization, uHTS hits (AID 624382); assay type: functional; settings: read-out: IC50_Mean
Caspase-6 = target: T3, Caspase-6 (Homo sapiens, UniProt P55212); assay: human caspase-6 inhibitors, dose response, biochemical, VEID-R110 fluorescence, cherry-pick (AID 720632)
T3 sequence (P55212 whole entry): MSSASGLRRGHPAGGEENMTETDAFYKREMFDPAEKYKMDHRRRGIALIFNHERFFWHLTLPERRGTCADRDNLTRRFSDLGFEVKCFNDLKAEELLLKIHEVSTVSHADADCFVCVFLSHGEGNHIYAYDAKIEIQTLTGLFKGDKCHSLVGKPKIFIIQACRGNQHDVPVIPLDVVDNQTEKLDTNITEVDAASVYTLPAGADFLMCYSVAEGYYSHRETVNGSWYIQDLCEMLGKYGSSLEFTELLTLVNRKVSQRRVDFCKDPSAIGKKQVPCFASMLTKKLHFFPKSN

[4] = HepG2 cell cytotoxicity, dose response, cytotoxicity control, ATP luminescence, cherry-pick, set 6 (AID 1053125); assay type: functional, cell-based
[5] = target: 72 kDa type IV collagenase (Homo sapiens, UniProt P08253); assay: Dose Response validation of uHTS RPN11 inhibitor hits using a MMP-2 Fluorescence assay.; assay type: functional
[6] = target: 26S proteasome non-ATPase regulatory subunit 14 (Homo sapiens, UniProt O00487); assay: inhibition of proteasome subunit RPN11 – biochemical, fluorescence polarization, uHTS hits, confirmation (AID 602368); assay type: functional
Chain of 26S proteasome non-ATPase regulatory subunit 14 (O00487 whole entry): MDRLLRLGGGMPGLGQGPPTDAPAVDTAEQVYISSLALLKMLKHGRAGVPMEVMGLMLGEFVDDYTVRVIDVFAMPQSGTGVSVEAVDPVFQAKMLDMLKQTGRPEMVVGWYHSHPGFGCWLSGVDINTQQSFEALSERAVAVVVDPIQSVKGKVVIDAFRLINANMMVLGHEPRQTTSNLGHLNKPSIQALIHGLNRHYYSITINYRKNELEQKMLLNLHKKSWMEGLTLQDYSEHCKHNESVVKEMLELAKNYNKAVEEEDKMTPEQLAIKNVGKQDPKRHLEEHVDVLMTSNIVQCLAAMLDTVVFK

[7] = target: cAMP-dependent protein kinase catalytic subunit alpha (Homo sapiens, UniProt P17612); assay: PKA catalytic subunit inhibitors, dose response, biochemical, Caliper mobility shift, dry powder samples (AID 504583)
HEK293 = assay: Fluorescence-based counterscreen for potentiators or agonists of NPY-Y1: cell-based high-throughput dose response assay for inhibitors of cyclic nucleotide gated ion channel (CNGC) activity. In this assay, the parental HEK293 cell line transfected with a cyclic-nucleotide gated ion channel (CNGC)-based cAMP sensor is used to measure inhibition of isoproterenol-induced CNGC …; assay type: functional; settings: Homo sapiens
[8] = target: Neuropeptide Y receptor type 2 (Homo sapiens, UniProt P49146); assay: Fluorescence-based counterscreen for agonists of NPY-Y1: cell-based high-throughput dose response assay for agonists of NPY-Y2.; assay type: functional
Chain of Neuropeptide Y receptor type 2 (P49146 whole entry): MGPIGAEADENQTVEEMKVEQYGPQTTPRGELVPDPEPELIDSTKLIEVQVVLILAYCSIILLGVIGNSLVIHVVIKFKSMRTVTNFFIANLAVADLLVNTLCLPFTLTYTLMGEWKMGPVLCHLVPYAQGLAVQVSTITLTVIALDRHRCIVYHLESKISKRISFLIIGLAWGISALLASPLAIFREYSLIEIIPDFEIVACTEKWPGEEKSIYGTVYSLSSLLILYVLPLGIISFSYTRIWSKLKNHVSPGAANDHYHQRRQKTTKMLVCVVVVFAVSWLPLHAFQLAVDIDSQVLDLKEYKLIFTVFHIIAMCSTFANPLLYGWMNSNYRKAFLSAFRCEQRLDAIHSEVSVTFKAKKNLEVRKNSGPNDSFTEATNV

[9] = target: Neuropeptide Y receptor type 1 (Homo sapiens, UniProt P25929); assay: Fluorescence-based dose response cell-based high-throughput screening assay for agonists of NPY-Y1. [Related pubchem assays: 1697 (Screening assay (NPY-Y1 agonists).), 1359 (Screening assay (NPY-Y2 potentiators or agonists).), 1304 (Screening assay (NPY-Y1 potentiators or agonists).), 1704 (Screening assay (CNGC inhibitors).), 1791 (Summary AID.)]; assay type: functional
[10] = target: Neurotensin receptor type 1 (Homo sapiens, UniProt P30989); assay type: functional;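 further: Image-based confirmatory dose-response assay measuring agonist activity at NTR1; NTR1-expressing U2OS osteosarcoma cells imaged for beta-arrestin GFP spot formation; agonist potency where compounds increase beta-arrestin recruitment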
[11] = target: T4, Voltage-gated N-type calcium channel alpha-1B subunit/Amyloid beta A4 precursor protein-binding family A member 1 (Homo sapiens, UniProt Q00975+Q02410); assay type: protein assay
T4 sequence (Q00975 whole entry): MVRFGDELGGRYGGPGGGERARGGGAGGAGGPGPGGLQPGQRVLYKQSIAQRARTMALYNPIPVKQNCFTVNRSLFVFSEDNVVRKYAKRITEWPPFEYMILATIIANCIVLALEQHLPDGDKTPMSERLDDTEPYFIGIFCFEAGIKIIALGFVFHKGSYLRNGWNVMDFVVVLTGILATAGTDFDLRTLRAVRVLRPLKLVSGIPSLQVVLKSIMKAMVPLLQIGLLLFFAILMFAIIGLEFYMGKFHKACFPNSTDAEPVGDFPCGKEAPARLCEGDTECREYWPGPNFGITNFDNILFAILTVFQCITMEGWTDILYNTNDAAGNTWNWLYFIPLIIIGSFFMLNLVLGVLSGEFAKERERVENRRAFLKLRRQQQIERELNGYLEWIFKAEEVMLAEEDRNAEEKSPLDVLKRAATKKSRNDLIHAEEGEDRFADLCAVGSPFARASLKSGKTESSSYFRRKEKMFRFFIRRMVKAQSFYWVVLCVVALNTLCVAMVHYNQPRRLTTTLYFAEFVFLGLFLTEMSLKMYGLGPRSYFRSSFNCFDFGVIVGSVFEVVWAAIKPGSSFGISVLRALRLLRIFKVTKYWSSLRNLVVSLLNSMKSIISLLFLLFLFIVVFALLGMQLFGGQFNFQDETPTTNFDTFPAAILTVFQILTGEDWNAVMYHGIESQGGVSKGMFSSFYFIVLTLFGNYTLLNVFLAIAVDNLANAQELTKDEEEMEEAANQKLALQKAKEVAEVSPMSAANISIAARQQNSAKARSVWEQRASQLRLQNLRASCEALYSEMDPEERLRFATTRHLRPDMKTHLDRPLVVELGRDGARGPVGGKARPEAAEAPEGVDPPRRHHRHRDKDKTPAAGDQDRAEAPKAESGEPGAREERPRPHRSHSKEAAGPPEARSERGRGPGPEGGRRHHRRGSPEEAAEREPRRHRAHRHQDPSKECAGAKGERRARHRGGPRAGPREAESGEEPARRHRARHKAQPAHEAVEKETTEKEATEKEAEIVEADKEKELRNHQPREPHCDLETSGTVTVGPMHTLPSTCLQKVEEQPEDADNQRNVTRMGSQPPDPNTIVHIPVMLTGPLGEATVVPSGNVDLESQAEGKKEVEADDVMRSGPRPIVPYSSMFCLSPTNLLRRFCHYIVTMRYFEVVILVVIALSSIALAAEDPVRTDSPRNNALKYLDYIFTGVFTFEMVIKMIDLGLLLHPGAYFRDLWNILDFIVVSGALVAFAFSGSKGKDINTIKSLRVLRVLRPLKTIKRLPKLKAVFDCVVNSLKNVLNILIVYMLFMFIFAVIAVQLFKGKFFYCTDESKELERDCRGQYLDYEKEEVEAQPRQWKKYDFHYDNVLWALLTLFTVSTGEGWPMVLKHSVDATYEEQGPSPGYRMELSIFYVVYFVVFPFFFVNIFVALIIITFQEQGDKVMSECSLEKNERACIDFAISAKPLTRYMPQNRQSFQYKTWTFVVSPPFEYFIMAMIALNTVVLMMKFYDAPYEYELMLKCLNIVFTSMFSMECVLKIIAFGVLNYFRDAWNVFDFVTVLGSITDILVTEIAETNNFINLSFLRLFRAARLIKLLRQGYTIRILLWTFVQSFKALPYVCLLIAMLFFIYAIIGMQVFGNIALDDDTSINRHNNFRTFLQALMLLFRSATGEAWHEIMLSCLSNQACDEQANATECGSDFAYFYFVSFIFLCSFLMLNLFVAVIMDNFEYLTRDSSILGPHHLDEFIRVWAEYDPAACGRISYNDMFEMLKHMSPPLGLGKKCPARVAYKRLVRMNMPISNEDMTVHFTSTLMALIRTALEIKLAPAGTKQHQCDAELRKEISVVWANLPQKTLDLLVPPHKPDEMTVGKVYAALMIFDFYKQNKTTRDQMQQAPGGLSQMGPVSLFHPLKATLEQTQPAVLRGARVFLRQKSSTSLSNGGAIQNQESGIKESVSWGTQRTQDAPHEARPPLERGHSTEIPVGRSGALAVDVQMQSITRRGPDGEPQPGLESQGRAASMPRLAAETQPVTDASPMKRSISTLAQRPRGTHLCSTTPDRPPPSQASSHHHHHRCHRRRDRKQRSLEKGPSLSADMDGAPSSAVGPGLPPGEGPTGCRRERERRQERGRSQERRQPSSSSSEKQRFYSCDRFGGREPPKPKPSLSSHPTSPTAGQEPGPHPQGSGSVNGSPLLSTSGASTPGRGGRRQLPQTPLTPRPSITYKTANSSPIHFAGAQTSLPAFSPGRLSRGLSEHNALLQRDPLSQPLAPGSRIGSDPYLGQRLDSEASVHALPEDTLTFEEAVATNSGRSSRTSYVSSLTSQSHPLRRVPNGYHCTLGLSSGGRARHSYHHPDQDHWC
T4 sequence (Q02410 whole entry): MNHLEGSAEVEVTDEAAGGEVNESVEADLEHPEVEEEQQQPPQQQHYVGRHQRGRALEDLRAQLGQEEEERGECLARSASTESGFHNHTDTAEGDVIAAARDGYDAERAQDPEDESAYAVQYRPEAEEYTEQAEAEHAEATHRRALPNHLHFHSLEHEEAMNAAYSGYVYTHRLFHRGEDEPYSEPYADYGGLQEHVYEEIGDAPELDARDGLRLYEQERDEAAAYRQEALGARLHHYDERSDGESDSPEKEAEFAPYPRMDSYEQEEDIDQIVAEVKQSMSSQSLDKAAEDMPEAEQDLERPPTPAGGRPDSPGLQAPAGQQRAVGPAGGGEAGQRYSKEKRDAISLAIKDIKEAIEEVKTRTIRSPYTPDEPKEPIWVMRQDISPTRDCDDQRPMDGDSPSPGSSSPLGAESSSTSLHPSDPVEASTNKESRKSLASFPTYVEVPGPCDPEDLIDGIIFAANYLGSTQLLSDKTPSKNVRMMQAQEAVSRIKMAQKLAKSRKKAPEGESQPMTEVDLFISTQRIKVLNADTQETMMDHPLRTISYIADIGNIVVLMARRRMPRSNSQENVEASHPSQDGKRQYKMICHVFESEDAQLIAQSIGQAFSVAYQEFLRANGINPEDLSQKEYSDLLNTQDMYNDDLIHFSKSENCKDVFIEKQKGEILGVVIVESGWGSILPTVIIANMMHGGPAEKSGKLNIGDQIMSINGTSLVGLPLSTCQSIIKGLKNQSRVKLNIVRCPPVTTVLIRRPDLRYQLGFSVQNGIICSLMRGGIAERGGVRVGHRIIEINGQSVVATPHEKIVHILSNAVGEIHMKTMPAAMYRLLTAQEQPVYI

[12] = target: T4, Voltage-gated N-type calcium channel alpha-1B subunit/Amyloid beta A4 precursor protein-binding family A member 1; assay type: protein assay; remark: listed apart in the source
[13] = target: Glucose-6-phosphate 1-dehydrogenase (Homo sapiens, UniProt P11413); assay: human G6PD enzyme inhibitors, dose response, selectivity assay for P. falciparum G6PD inhibitor project, biochemical, fluorescence (AID 504792); assay type: functional
Chain of Glucose-6-phosphate 1-dehydrogenase (P11413 whole entry): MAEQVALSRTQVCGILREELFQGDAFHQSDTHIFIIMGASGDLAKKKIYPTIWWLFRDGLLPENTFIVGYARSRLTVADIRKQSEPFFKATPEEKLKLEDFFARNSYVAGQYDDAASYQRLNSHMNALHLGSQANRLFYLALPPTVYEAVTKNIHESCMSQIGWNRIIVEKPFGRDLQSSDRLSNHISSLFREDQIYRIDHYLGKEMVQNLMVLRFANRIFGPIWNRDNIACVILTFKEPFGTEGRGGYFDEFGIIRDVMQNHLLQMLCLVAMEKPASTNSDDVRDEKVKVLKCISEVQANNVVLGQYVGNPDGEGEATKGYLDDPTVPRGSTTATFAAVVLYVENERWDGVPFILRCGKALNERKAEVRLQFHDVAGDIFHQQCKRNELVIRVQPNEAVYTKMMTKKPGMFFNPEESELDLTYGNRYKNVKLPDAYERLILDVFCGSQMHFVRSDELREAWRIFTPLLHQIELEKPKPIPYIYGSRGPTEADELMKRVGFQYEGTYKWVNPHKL

[14] = target: DNA dC->dU-editing enzyme APOBEC-3G (Homo sapiens, UniProt Q9HC16); assay: Dose Response confirmation of small molecule APOBEC3G DNA Deaminase Inhibitors via a fluorescence-based single-stranded DNA deaminase assay. [Related pubchem assays (depositor defined):AID493012, AID493028]; assay type: functional
Cytochrome P450 2D6 = Cytochrome P450 2D6 (Homo sapiens, UniProt P10635); assay: qHTS Assay for Inhibitors and Substrates of Cytochrome P450 2D6. [Related pubchem assays: 410 ]; assay type: ADME; settings: read-out: Potency
[15] = target: Polyadenylate-binding protein 1 (Homo sapiens, UniProt P11940); assay: PABP poly(A) RNA binding inhibitors, primary screen, biochemical, fluorescence polarization, uHTS (AID 2014)
[16] = target: Eukaryotic translation initiation factor 4H (Homo sapiens, UniProt Q15056); assay: human eIF4H binding inhibitors, primary screen, translation initiation inhibitor project, biochemical, uHTS, fluorescence polarization (AID 2012)
[17] = target: Intestinal-type alkaline phosphatase (Mus musculus, UniProt P24822); assay: PubChem AID 488874; assay type: functional
[18] = target: T5, Intestinal-type alkaline phosphatase (Homo sapiens, UniProt P09923); assay: human IAP activators, dose response, biochemical, luminescent, uHTS hits, set 2 (AID 488817); assay type: functional;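 further: potency of activators that raise enzyme activity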
T5 sequence (P09923 whole entry): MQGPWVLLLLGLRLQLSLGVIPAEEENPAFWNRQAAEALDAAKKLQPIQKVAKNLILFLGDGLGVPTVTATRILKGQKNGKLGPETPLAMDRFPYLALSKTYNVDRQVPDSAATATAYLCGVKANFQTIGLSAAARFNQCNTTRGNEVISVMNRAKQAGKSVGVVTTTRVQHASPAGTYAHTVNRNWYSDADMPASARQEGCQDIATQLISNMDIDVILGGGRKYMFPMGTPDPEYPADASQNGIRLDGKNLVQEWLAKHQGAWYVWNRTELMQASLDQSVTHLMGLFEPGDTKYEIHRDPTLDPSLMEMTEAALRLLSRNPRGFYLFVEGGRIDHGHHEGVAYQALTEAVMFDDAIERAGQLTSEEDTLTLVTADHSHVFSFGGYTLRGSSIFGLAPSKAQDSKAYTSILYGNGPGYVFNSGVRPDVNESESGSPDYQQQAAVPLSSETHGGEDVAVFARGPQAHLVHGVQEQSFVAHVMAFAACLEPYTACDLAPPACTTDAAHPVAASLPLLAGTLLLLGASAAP

[19] = target: T6, Alkaline phosphatase, tissue-nonspecific isozyme (Homo sapiens, UniProt P05186); assay: TNAP enzyme activators, dose response, selectivity assay for human IAP activator project, biochemical, TNAP isozyme, human IAP uHTS hits (AID 488886); assay type: functional;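 further: potency of compounds raising TNAP activity as a selectivity check on IAP activators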
T6 sequence (P05186 whole entry): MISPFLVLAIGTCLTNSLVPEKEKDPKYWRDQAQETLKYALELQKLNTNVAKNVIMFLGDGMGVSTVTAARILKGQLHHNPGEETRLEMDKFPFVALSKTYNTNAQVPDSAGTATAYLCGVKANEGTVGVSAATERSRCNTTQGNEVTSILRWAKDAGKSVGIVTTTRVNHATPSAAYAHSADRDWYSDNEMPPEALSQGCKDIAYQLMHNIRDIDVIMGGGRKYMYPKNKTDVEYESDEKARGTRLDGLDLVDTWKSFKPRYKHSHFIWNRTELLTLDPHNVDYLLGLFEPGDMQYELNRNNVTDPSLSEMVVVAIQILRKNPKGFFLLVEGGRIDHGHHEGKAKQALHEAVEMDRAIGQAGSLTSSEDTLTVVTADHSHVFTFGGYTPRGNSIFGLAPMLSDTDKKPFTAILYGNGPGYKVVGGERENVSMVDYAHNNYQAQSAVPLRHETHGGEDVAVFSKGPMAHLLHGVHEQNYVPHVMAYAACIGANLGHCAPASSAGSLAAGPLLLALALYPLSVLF

[20] = target: T5, Intestinal-type alkaline phosphatase; assay: human intestinal alkaline phosphatase activators, dose response, biochemical, luminescence, uHTS hits (AID 463120); assay type: functional
[21] = target: T6, Alkaline phosphatase, tissue-nonspecific isozyme
SUMO E1/E2 = SUMO E1/E2 (Homo sapiens, UniProt P63279+Q9UBE0+Q9UBT2); assay: SAR analysis of SUMOylation using HTRF in an in-Vitro dose response assay. [Related pubchem assays (depositor defined):AID2006, AID2011, AID2018, AID2069, AID2658]; assay type: functional
[22] = target: T4, Voltage-gated N-type calcium channel alpha-1B subunit/Amyloid beta A4 precursor protein-binding family A member 1; assay: disruptors of Mint-PDZ/N-type channel peptide interaction – biochemical, HTRF, set 2, SAR follow-up (AID 434980); assay type: functional
[23] = target: T4, Voltage-gated N-type calcium channel alpha-1B subunit/Amyloid beta A4 precursor protein-binding family A member 1; assay: disruptors of Mint-PDZ/N-type channel peptide interaction – biochemical, HTRF, SAR follow-up (AID 2489); assay type: functional

## CN(C)S(=O)(=O)N(CC(=O)N(Cc1ccccc1)Cc1ccccc1)c1ccccc1
Bcl-2-like protein 10
  IC50: 36.6 µM (active)
Estrogen receptor
  IC50: 24.9 µM (active)

## CSc1nc(SC(C)C(=O)O)c2c3c(sc2n1)COC(C)(C)C3 (configuration not stated)
Salmon testes DNA
  AC50: 90.3 µM (active)

## O=C1NN(c2ccccc2)C(=O)C2C1C1C=CC2C12CC2 (configuration not stated)
[1]
  AC50: 18.8 µM (active)

## Nc1nc(-c2cc(O)ccc2[N+](=O)[O-])cc(-c2ccccc2)c1[N+](=O)[O-]
[2]
  IC50: 9.51 µM (active)
Prothrombin
  IC50: 53 µM (active)
cells
  AC50: 42.5 µM (active)
[3]
  IC50: > 66.6 µM (inactive)
Caspase-6
  AC50: 10.7 µM (active)
[4]
  AC50: > 52 µM (inactive)
[5]
  IC50: > 100 µM (inactive)
[6]
  IC50: 23.9 µM (active)
[7]
  AC50: 1.11 µM (active)

## CC1CCC(C(C)C)C(OCC(O)CNC(C)c2ccccc2)C1 (configuration not stated)
HEK293
  IC50: > 35.4 µM (not active)
[8]
  EC50: > 35.4 µM (not active)
[9]
  EC50: > 35.4 µM (not active)
[10]
  EC50: 21.5 µM (inactive)

## Cc1cc(C)c2c(=O)n(CC(=O)NC3CCCC3)sc2n1
[11]
  IC50: 42.7 µM (active)
[12]
  IC50: 7.6 µM (active)
[13]
  IC50: > 80 µM (inactive)
[14]
  IC50: > 100 µM (inactive)

## COC(=O)NC(c1ccc(F)cc1)C(C(C)=O)C(=O)OC (configuration not stated)
Cytochrome P450 2D6
  AC50: 3.16 µM (inconclusive)

## CCN1C(NCC(C)C)=N[C@@H](c2cccc(C(F)(F)F)c2)C(C(=O)OC)=C1C
[15]
  IC50: 10 µM (active)
[16]
  IC50: > 100 µM (inactive)

## Cc1nc2c3ccccc3nc(NNC(=O)CCC(=O)NCCN3CCN(c4ccccc4)CC3)n2n1
[17]
  IC50: 49.8 µM (active)
[18]
  EC50: 13.7 µM (active)
[19]
  EC50: 14.1 µM (active)
[20]
  EC50: 8.73 µM (active)

## Oc1ccccc1/C=N/Nc1cccc2cccnc12
[21]
  EC50: > 100 µM (not active)

## COc1ccccc1CNC(=O)c1cc(-c2ccco2)nc2ccccc12
SUMO E1/E2
  IC50: 2.51 µM (active)
[22]
  IC50: 22 µM (active)
[23]
  IC50: 24.7 µM (active)
